Source: publication PMC4385927 (Cell Death & Disease, 2015)
Where two headings read alike, the source gives them in different places.

What was measured:
[1] = Plasma and brain concentration of trans-ISRIB by LC-MS/MS after single intraperitoneal injection; format: in vivo; details: wild-type mice; for Brain mean ±S.D. / Plasma mean ±S.D.: n=3
Procedure: We synthesized ISRIB as described,[22] and confirmed penetration of the blood–brain barrier and measured mean brain:plasma ratios at various doses in wild-type mice. Intra-peritoneal administration of 0.25 mg/kg of trans-ISRIB (henceforth termed simply ISRIB), as used by Sidrauski et al.[22] to enhance memory in mice, gave a favorable pharmacokinetic profile (Table 1), so this dose was used for treatment.
Blood and brain tissue were collected 8 or 24 h after dosing from mice treated with one doses of 0.25, 2.5 or 5 mg/kg trans-ISRIB, or vehicle. Blood plasma (up 0.2 ml, exact volume measured) was diluted with water to 0.2 ml and extracted with 0.4 ml of chloroform/methanol 2 : 1. After vortex mixing (10 min) and centrifugation (10 000 g, 10 min), the lower layer was dried with vacuum centrifugation and reconstituted in 50 μl of methanol. Brain tissue (one complete half, about 0.25 g weighed exactly) was homogenized in 0.5 ml of chloroform/methanol 2 : 1 and further processed exactly as the plasma samples. ISRIB quantitative analysis (using external standards) was performed by LC-MS/MS using a 4000 QTRAP mass spectrometer (Applied Biosystems, Foster City, CA, USA) equipped with a turbo ion source and LC series 10 AD VP (Shimadzu). The mobile phase was a water/acetonitrile gradient modified with 0.1% formic acid using a Agilent Poroshell 120 SB-C18 2.1 × 50 mm^2 (2.7 μm), which was maintained at 40 °C. LC-MS/MS multiple reaction monitoring used a precursor ion of mass/charge ratio (m/z) 452 and a product ion of m/z 265 in positive electrospray ionization mode for trans-ISRIB. Data analysis was performed with Analyst 1.4.1 in the quantitative mode.

[2] = tested on: global protein synthesis rates; set-up: species or system mice; details: mouse, in vivo, ip, 0.25 mg/kg
ATF4 = tested on: ATF4; set-up: species or system mice; details: mouse, in vivo, ip, 0.25 mg/kg
eIF2α-P = tested on: eIF2α-P; set-up: species or system mice; details: mouse, in vivo, ip, 0.25 mg/kg
total PrP and PrP^Sc = tested on: total PrP and PrP^Sc; set-up: species or system mice; details: mouse, in vivo
[3] = tested on: Rocky Mountain Laboratory (RML) prions; format: in vivo, mice
[4] = tested on: AR42j rat pancreatic acinar cells; format: cell-based
[5] = tested on: CHO cells expressing a luciferase reporter construct under control of the CHOP promoter; assay: CHOP::luciferase assay; format: cell-based; details: 5 μg/ml tunicamycin 6 h; ISRIB 1 μM, GSK2606414 20 μM; n=9
Procedure: AR42j cells were cultured in DMEM supplemented with 10% Fetal calf serum (FetalClone II, Thermo Scientific, Loughborough, UK), 2 mM l-glutamine, 1 × Penicillin/Streptomycin and 1 × non-essential amino-acid solution and were maintained at 37 °C with 5% CO2. CHO-KI CHOP::luciferase cells were cultured in DMEM/F12(Ham) (Gibco, Paisley, UK) supplemented with 10% Fetal calf serum, 2 mM L-glutamine and 1 × Penicillin/Streptomycin, and were maintained at 37 °C with 5% CO2.
CHO::KI cells stably transfected with a CHOP::luciferase reporter[27] were plated at a density of 1 × 10^5 per well in a six-well plate and left to grow overnight. Cells were treated for 6 h with 5 μg/ml tunicamycin or vehicle only (100% DMSO) and then extracted using the Steady-Glo luciferase assay system (Promega) before being quantified using the Glomax 96 microplate luminometer (Promega). ISRIB and GSK2606414 were incubated with 5 μg/ml tunicamycin for 6 h at 1 or 20 μM, respectively, before assaying as above.

Solubility (statement) = format: physicochemical
[6] = mouse, in vivo
[7] = tested on: global protein synthesis rates; details: mouse; cited from earlier work
[8] = cited from earlier work
[9] = single i.p. dose 0.25 mg/kg, 8 h
[10] = single i.p. dose 0.25 mg/kg, 24 h
[11] = single i.p. dose 2.5 mg/kg, 8 h
[12] = single i.p. dose 2.5 mg/kg, 24 h
[13] = prion-infected mice, ISRIB 0.25 mg/kg i.p. daily from 7 w.p.i., vehicle 9/9

O=C(COc1ccc(Cl)cc1)N[C@H]1CC[C@H](NC(=O)COc2ccc(Cl)cc2)CC1 [ISRIB]
Mean ratio brain: plasma [1, 9]: 0.54 | Brain mean ±S.D. [1, 9]: 186.9 ± 46.8 ng/g | Plasma mean ±S.D. [1, 9]: 345.3 ± 44.7 ng/mL | Mean ratio brain: plasma [1, 10]: 1.62 | Brain mean ±S.D. [1, 10]: 16.0 ± 1.6 ng/g | Plasma mean ±S.D. [1, 10]: 9.9 ± 1.0 ng/mL | Mean ratio brain: plasma [1, 11]: 0.35 | Brain mean ±S.D. [1, 11]: 254.6 ± 70.3 ng/g | Plasma mean ±S.D. [1, 11]: 721.6 ± 60.1 ng/mL | Mean ratio brain: plasma [1, 12]: 0.9 | Brain mean ±S.D. [1, 12]: 39.7 ± 12.6 ng/g | Plasma mean ±S.D. [1, 12]: 44.1 ± 11.6 ng/mL | Mean ratio brain: plasma ([1]; single i.p. dose 5 mg/kg, 8 h): 0.43 | Brain mean ±S.D. ([1]; single i.p. dose 5 mg/kg, 8 h): 160.3 ± 17.6 ng/g | Plasma mean ±S.D. ([1]; single i.p. dose 5 mg/kg, 8 h): 369.7 ± 114.4 ng/mL | Mean ratio brain: plasma ([1]; single i.p. dose 5 mg/kg, 24 h): 0.91 | Brain mean ±S.D. ([1]; single i.p. dose 5 mg/kg, 24 h): 64.6 ± 9.2 ng/g | Plasma mean ±S.D. ([1]; single i.p. dose 5 mg/kg, 24 h): 70.9 ± 30.6 ng/mL | global protein synthesis rates, % of levels seen in uninfected controls [2]: ~ 70% | levels of ATF4 (hippocampus) (ATF4): reduced levels of ATF4 markedly | eIF2α-P levels (hippocampus) (eIF2α-P): unchanged | levels of total PrP and PrP^Sc (total PrP and PrP^Sc): does not affect | animals that developed confirmatory signs of prion disease by 12 w.p.i. ([3]; clinical observation, vehicle 9/9): 0/12 | survival in prion-infected mice ([3]; n=12, vehicle 84±3 days (n=9), killed because of loss of 20% of body weight): 96±4 days post infection | Confirmatory signs: Dragging of limbs (front/hind) (mice affected/total) ([3]; prion-infected mice, ISRIB 0.25 mg/kg i.p. daily from 7 w.p.i., vehicle 2/9): 0/12 | Confirmatory signs: Sustained hunched posture (mice affected/total) ([3]; prion-infected mice, ISRIB 0.25 mg/kg i.p. daily from 7 w.p.i., vehicle 3/9): 0/12 | Early indicator signs: Unsustained hunched posture (mice affected/total) ([3]; prion-infected mice, ISRIB 0.25 mg/kg i.p. daily from 7 w.p.i., vehicle 4/9): 0/12 | Confirmatory signs: Impairment of righting reflex (mice affected/total) ([3]; prion-infected mice, ISRIB 0.25 mg/kg i.p. daily from 7 w.p.i., vehicle 5/9): 0/12 | Early indicator signs: Hind limb clasping (mice affected/total) ([3]; prion-infected mice, ISRIB 0.25 mg/kg i.p. daily from 7 w.p.i., vehicle 8/9): 7/12 | Early indicator signs: Mild loss of coordination (mice affected/total) [3, 13]: 7/12 | Early indicator signs: Rigid tail (mice affected/total) [3, 13]: 7/12 | Scrapie incubation: Number of animals succumbing to prion disease [3, 13]: 0/12 | neuronal loss in the hippocampus (neuropathological examination, H&E) ([3]; prion-infected mice, ISRIB vs vehicle): prevented neuronal loss | protein synthesis (translation) rates restored in vitro, % of control levels [4]: ~ 50% | tunicamycin-induced CHOP induction (relative luminescence) [5]: only partially reduced | solubility (Solubility (statement)): high insolubility | blood glucose levels [6]: unaffected | loss of body weight at which animals had to be killed [6]: 20% | pancreas histology (H&E sections) [6]: histologically normal | pancreatic weights [6]: normal

Cn1cc(-c2ccc3c(c2)CCN3C(=O)Cc2cccc(C(F)(F)F)c2)c2c(N)ncnc21 [GSK2606414, 7-methyl-5-(1-{[3-(trifluoromethyl)phenyl]acetyl}-2,3-dihydro-1H-indol-5-yl)-7H-p yrrolo[2,3-d]pyrimidin-4-amine]
protein synthesis (translation) rates restored in vitro, % of control levels ([4]; thapsigargin-treated AR42j cells, Figures 6a and b): 90% | tunicamycin-induced CHOP induction (relative luminescence) [5]: completely inhibited | reduction in pancreatic weight ([6]; Tg37+/-, po, 50 mg/kg): ~ 50% | blood glucose levels [6]: mildly but significantly elevated | pancreas histology (H&E sections) [6]: extensive destruction of exocrine acinar pancreatic tissue | recovery of protein synthesis rates in vivo [7]: ~ 100% | toxicity of GSK2606414 treatment in prion-diseased mice [8]: weight loss and mild hyperglycemia
